Assay results: ChEMBL document CHEMBL1921690, “Synthesis and evaluation of pyridone-phenoxypropyl-R-2-methylpyrrolidine analogues as histamine H3 receptor antagonists” (Bioorg Med Chem Lett, 2011)

Columns and labels:
[1] = biological target: T1, Histamine H3 receptor (Homo sapiens, UniProt Q9Y5N1); assay: Displacement of [3H]NAMH from human histamine H3 receptor expressed in CHO cells; format: cell-based
[2] = biological target: Histamine H3 receptor (Rattus norvegicus, UniProt Q9QYN8); assay: Displacement of [3H]NAMH from rat histamine H3 receptor expressed in CHO cells; format: cell-based
[3] = Clearance in rat at 1 mg/kg, iv; format: ADME, organism-based; set-up: dose 1 mg/kg, route intravenous; details: in vivo
[4] = Oral bioavailability in rat at 5 mg/kg; format: ADME, organism-based; details: in vivo
[5] = biological target: T1, Histamine H3 receptor; assay: Antagonist activity at human histamine H3 receptor expressed in CHO cells assessed as inhibition of RAHM-induced [35S]GTPgammaS binding after 4 hrs by beta liquid scintillation counting; format: functional, cell-based
[6] = test system: Rattus norvegicus; assay: Induction of wake promoting activity in ip dosed Sprague-Dawley rat EEG/EMG model assessed as increase in AUC of wake latency after 4 hrs post dosing; format: functional, organism-based
[7] = Half life in rat at 1 mg/kg, iv; format: ADME, organism-based; set-up: dose 1 mg/kg, route intravenous; details: in vivo
[8] = Volume of distribution in rat at 1 mg/kg, iv; format: ADME, organism-based; set-up: dose 1 mg/kg, route intravenous; details: in vivo
[9] = AUC (0 to t) in rat at 5 mg/kg, po; format: ADME, organism-based; set-up: dose 5 mg/kg, route oral; details: plasma
[10] = Cmax in rat at 5 mg/kg, po; format: ADME, organism-based; set-up: dose 5 mg/kg, route oral; details: in vivo
[11] = Ratio of drug level in brain to plasma in rat at 5 mg/kg, po; format: ADME, organism-based; set-up: dose 5 mg/kg, route oral; details: read-out: BPR
[12] = Drug level in rat brain at 10 mg/kg, ip after 1 hr; format: ADME, organism-based; set-up: dose 10 mg/kg, route intraperitoneal; details: read-out: Drug uptake
[13] = Ratio of drug level in brain to plasma in rat at 10 mg/kg, ip after 1 hr; format: ADME, organism-based; set-up: dose 10 mg/kg, route intraperitoneal; details: read-out: BPR
[14] = Aqueous solubility of compound at pH 7.4; format: physicochemical
[15] = Half life in human liver microsomes; format: ADME, Microsome
[16] = Half life in mouse liver microsomes; format: ADME, Microsome
[17] = Half life in rat liver microsomes; format: ADME, Microsome
[18] = Half life in monkey liver microsomes; format: ADME, Macaca mulatta, Microsome; details: rhesus monkey
[19] = biological target: T2, Cytochrome P450 1A2 (Homo sapiens, UniProt P05177); assay: Inhibition of CYP1A2; format: ADME
T2 sequence (P05177 whole entry): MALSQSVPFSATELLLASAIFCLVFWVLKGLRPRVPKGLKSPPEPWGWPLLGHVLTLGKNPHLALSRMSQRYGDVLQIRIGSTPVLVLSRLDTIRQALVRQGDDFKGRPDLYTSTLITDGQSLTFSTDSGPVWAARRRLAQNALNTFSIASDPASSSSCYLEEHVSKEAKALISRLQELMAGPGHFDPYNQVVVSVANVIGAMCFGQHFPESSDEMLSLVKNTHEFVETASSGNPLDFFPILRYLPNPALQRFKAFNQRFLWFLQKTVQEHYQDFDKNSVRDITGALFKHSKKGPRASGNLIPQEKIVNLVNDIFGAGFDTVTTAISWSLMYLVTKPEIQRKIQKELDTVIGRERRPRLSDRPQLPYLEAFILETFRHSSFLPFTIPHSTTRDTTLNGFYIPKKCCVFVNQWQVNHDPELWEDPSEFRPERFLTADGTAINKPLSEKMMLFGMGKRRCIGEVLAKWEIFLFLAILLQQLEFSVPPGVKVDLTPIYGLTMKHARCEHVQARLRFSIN

[20] = biological target: Cytochrome P450 2C9 (Homo sapiens, UniProt P11712); assay: Inhibition of CYP2C9; format: ADME
[21] = biological target: Cytochrome P450 2C19 (Homo sapiens, UniProt P33261); assay: Inhibition of CYP2C19; format: ADME
[22] = biological target: Cytochrome P450 2D6 (Homo sapiens, UniProt P10635); assay: Inhibition of CYP2D6; format: ADME
[23] = biological target: Cytochrome P450 3A4 (Homo sapiens, UniProt P08684); assay: Inhibition of CYP3A4; format: ADME
[24] = test system: Rattus norvegicus; assay: Inhibition of RAMH-induced dipsogenia in ip dosed rat dipsogenia model; format: functional
[25] = test system: Rattus norvegicus; assay: Induction of wake promoting activity in Sprague-Dawley rat EEG/EMG model assessed as AUC of cumulative wake time at 10 mg/kg, ip measured after 4 hrs post dosing (reference value: 114 +/- 9 mins); format: functional; details: route intraperitoneal
[26] = test system: Rattus norvegicus; assay: Induction of wake promoting activity in Sprague-Dawley rat EEG/EMG model assessed as AUC of cumulative wake time at 30 mg/kg, ip measured after 4 hrs post dosing (reference value: 114 +/- 9 mins); format: functional; details: route intraperitoneal
[27] = test system: Rattus norvegicus; assay: Induction of wake promoting activity in Sprague-Dawley rat EEG/EMG model assessed as increase of wake latency at 30 mg/kg, ip measured after 4 hrs post dosing; format: functional; details: route intraperitoneal
[28] = test system: Rattus norvegicus; assay: Induction of wake promoting activity in Sprague-Dawley rat EEG/EMG model assessed as time to maximal cumulative wake surplus at 30 mg/kg, ip measured after 6 hrs post dosing; format: functional; details: route intraperitoneal
[29] = test system: Rattus norvegicus; assay: Induction of wake promoting activity in Sprague-Dawley rat EEG/EMG model assessed as time for recovered sleep latency per hrat 30 mg/kg, ip measured after 6 to 22 hrs post dosing; format: functional; details: route intraperitoneal
[30] = test system: Rattus norvegicus; assay: Induction of wake promoting activity in Sprague-Dawley rat EEG/EMG model assessed as retained wake latency at 30 mg/kg, ip measured after 22 hrs post dosing; format: functional; details: route intraperitoneal
[31] = test system: Rattus norvegicus; assay: Induction of wake promoting activity in Sprague-Dawley rat EEG/EMG model assessed as surplus wake time at 30 mg/kg, ip measured after 22 hrs post dosing; format: functional; details: route intraperitoneal
[32] = test system: Rattus norvegicus; assay: Induction of wake promoting activity in Sprague-Dawley rat EEG/EMG model assessed as maximum cumulative wake surplus time at 10 mg/kg, ip measured after 3 hrs post dosing; format: functional; details: route intraperitoneal
[33] = test system: Rattus norvegicus; assay: Induction of wake promoting activity in Sprague-Dawley rat EEG/EMG model assessed as maximum cumulative wake surplus time at 10 mg/kg, ip measured after 22 hrs post dosing; format: functional; details: route intraperitoneal
[34] = test system: Rattus norvegicus; assay: Induction of wake promoting activity in Sprague-Dawley rat EEG/EMG model assessed as fold increase in wake latency at 30 mg/kg, ip measured after 4 hrs post dosing relative to control; format: functional; details: route intraperitoneal
[35] = biological target: Histamine H1 receptor (Homo sapiens, UniProt P35367); assay: Binding affinity to human histamine H1 receptor
[36] = biological target: Histamine H2 receptor (Homo sapiens, UniProt P25021); assay: Binding affinity to human histamine H2 receptor
[37] = biological target: Histamine H4 receptor (Homo sapiens, UniProt Q9H3N8); assay: Binding affinity to human histamine H4 receptor
[38] = biological target: T1, Histamine H3 receptor; assay: Inhibition of basal activity of human histamine H3 receptor expressed in CHO cells assessed as inhibition of RAHM-induced [35S]GTPgammaS binding after 4 hrs by beta liquid scintillation counting; format: functional, cell-based

Sequence of Histamine H3 receptor (Rattus norvegicus, UniProt Q9QYN8) (Q9QYN8 whole entry): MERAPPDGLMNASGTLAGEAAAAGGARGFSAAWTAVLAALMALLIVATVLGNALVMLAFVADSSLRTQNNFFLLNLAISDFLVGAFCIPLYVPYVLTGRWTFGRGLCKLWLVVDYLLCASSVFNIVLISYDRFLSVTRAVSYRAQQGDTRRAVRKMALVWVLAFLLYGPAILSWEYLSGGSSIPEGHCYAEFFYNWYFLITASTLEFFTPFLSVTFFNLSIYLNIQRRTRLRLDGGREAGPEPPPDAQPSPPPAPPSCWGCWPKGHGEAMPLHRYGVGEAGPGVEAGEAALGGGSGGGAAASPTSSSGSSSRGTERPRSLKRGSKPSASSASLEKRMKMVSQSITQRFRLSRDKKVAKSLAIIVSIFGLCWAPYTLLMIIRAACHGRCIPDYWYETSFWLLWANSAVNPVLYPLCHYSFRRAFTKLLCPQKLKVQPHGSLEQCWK
T1 sequence (Q9Y5N1 whole entry): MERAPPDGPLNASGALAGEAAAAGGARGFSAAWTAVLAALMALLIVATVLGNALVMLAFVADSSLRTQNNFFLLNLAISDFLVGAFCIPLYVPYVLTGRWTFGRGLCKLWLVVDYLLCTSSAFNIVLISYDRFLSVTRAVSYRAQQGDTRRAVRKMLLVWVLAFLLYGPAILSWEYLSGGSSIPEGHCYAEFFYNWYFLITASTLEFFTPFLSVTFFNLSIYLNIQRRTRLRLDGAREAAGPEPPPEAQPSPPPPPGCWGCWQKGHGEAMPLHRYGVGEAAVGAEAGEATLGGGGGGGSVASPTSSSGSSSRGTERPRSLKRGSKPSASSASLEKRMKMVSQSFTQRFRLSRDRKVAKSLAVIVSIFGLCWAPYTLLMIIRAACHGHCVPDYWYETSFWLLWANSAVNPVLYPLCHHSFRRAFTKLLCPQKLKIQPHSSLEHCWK
Sequence of Histamine H2 receptor (P25021 whole entry): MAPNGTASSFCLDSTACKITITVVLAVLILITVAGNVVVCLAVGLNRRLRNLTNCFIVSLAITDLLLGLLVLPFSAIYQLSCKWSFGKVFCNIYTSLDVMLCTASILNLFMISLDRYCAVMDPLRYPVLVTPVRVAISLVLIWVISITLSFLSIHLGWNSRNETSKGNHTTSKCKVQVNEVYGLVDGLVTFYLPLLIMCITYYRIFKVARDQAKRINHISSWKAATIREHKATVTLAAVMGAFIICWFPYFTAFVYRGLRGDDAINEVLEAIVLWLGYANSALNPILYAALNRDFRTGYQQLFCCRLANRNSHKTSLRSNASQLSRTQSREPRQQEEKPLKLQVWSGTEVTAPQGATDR
Sequence of Histamine H1 receptor (P35367 whole entry): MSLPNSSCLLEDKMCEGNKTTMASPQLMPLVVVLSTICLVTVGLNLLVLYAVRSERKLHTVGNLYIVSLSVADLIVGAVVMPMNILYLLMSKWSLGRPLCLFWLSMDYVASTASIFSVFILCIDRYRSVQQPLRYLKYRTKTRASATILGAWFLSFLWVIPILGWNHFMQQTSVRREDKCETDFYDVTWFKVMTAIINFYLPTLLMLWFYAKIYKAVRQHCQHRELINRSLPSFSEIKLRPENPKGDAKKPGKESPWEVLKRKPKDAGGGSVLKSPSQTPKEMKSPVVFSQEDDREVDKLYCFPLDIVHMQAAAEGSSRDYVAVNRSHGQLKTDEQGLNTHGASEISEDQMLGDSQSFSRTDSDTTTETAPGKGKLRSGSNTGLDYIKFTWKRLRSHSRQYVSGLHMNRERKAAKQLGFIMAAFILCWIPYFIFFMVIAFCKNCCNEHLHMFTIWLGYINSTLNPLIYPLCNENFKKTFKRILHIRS
Sequence of Cytochrome P450 3A4 (P08684 whole entry): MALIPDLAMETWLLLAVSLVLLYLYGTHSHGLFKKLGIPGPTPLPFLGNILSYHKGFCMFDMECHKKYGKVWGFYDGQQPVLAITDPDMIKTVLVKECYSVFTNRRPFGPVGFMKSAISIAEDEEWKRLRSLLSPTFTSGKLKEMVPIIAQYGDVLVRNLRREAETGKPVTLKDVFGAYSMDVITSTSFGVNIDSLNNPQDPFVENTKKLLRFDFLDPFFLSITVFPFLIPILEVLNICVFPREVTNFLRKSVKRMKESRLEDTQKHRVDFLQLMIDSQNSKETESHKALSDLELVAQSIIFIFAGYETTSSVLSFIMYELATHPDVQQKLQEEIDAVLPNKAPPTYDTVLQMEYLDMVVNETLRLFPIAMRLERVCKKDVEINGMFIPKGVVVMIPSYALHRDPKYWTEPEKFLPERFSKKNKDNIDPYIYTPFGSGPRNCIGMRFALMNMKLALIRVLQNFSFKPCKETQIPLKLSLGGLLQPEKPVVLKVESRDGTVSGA
Sequence of Cytochrome P450 2C9 (P11712 whole entry): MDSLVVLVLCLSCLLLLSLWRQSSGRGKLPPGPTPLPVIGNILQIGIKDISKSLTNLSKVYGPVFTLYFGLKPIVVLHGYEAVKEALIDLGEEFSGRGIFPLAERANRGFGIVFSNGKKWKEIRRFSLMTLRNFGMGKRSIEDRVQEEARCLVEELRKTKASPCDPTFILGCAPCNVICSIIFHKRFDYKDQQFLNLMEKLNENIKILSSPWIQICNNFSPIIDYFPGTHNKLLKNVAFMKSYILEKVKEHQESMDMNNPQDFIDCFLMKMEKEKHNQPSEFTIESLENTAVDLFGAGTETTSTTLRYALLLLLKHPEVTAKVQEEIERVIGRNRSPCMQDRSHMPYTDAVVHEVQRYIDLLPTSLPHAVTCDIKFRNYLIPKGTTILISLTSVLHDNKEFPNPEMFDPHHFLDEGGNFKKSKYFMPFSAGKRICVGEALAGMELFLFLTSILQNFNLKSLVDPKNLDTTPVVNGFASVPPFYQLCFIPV
Sequence of Cytochrome P450 2D6 (P10635 whole entry): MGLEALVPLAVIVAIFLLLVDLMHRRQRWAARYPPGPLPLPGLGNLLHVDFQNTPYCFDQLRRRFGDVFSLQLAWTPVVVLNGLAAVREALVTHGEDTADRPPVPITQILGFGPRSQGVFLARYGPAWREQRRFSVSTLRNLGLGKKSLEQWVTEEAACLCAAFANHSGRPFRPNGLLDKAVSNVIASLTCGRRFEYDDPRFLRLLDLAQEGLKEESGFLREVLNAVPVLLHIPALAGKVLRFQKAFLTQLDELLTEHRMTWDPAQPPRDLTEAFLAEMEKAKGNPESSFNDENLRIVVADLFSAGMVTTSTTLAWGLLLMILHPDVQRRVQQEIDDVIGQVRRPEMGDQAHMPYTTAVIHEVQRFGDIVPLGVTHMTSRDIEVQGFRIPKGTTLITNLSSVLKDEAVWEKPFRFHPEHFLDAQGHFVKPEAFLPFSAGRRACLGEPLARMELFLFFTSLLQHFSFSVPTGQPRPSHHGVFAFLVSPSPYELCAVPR
Sequence of Cytochrome P450 2C19 (P33261 whole entry): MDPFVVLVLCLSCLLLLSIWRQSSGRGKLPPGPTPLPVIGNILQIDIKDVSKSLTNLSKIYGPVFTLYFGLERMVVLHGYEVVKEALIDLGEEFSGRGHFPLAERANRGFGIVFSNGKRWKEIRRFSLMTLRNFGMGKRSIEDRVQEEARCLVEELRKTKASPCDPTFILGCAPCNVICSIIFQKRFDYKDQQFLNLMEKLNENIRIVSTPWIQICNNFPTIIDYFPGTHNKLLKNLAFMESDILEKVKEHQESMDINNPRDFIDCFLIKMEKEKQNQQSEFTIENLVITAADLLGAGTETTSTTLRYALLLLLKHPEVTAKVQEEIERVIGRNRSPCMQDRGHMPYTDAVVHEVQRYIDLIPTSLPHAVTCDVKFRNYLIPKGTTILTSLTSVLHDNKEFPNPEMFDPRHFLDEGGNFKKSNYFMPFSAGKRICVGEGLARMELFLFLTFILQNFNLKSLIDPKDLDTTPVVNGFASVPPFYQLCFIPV
Sequence of Histamine H4 receptor (Q9H3N8 whole entry): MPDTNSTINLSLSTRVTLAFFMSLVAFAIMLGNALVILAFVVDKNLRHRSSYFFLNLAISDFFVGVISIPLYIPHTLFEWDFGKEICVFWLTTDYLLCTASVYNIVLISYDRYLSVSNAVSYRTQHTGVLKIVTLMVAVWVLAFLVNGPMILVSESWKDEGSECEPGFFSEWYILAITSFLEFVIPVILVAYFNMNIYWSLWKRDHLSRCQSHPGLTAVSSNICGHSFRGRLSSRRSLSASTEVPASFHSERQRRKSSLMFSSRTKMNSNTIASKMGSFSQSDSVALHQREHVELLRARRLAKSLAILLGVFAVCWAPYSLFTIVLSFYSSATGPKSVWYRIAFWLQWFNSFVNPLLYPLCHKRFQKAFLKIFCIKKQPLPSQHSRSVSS

## C[C@@H]1CCCN1CCCOc1cccc(-c2ccc(=O)n(C)c2)c1
[1]
  Ki: 112 nM
[2]
  Ki: > 500 nM

## C[C@@H]1CCCN1CCCOc1ccc(-c2ccc(=O)[nH]c2)cc1
[3]
  clearance: 96 mL/min/kg
[4]
  bioavailability: 0%
[1]
  Ki: 7.7 nM
[2]
  Ki: 9 nM

## C[C@@H]1CCCN1CCCOc1ccc(-c2ccc(=O)n(-c3ccc(F)cc3)c2)cc1
[1]
  Ki: 4.7 nM
[2]
  Ki: 9.6 nM

## C[C@@H]1CCCN1CCCOc1ccc(-c2ccc(=O)n(C)c2)cc1
[5]
  Kb: 0.2 nM
[6]
  Activity: Dose-dependent effect
[7]
  half-life: 84 min
[8]
  Vd: 1.4 L/kg
[3]
  clearance: 11 mL/min/kg
[9]
  AUC(0-t): 867 ng·h/mL
[10]
  Cmax: 190 ng/mL
[4]
  bioavailability: 11%
[11]
  Kp: 1.7
[12]
  concentration at 1 h: 2900 nM
[13]
  Kp at 1 h: 1.9
[14]
  solubility: > 300 µg/mL
[15]
  half-life: > 40 min
[16]
  half-life: > 40 min
[17]
  half-life: > 40 min
[18]
  half-life: > 40 min
[19]
  IC50: > 30000 nM
[20]
  IC50: > 30000 nM
[21]
  IC50: > 30000 nM
[22]
  IC50: > 30000 nM
[23]
  IC50: > 30000 nM
[24]
  ED50: 0.03 mg/kg
  inhibition: Dose-dependent effect
[25]
  Time: 160 min
[26]
  Time: 227 min
[27]
  Activity: 95%
[28]
  Time: 146 min
[29]
  Time: 6.3 min
[30]
  Activity: 35%
[31]
  Time: 51 min
[32]
  Time: 53 min
[33]
  Time: 33 min
[34]
  fold change (FC): 2
[1]
  Ki: 0.7 nM
[2]
  Ki: 8.5 nM
[35]
  Ki: > 10000 nM
[36]
  Ki: > 10000 nM
[37]
  Ki: > 10000 nM
[38]
  EC50: 0.7 nM

## C[C@@H]1CCCN1CCCOc1ccc(-c2ccc(=O)n(Cc3ccccc3)c2)cc1
[3]
  clearance: 171 mL/min/kg
[4]
  bioavailability: 0%
[1]
  Ki: 2 nM
[2]
  Ki: 10 nM

## C[C@@H]1CCCN1CCCOc1ccc(-c2cn(C)c(=O)c3ccccc23)cc1
[3]
  clearance: 42 mL/min/kg
[4]
  bioavailability: 8%
[1]
  Ki: 0.9 nM
[2]
  Ki: 2.4 nM

## C[C@@H]1CCCN1CCCOc1ccc(-c2cc(C#N)c(=O)n(C)c2)cc1
[1]
  Ki: 3.4 nM
[2]
  Ki: 3 nM

## C[C@@H]1CCCN1CCCOc1ccc(-c2ccc(=O)n(-c3ccccc3)c2)cc1
[3]
  clearance: 138 mL/min/kg
[4]
  bioavailability: 17%
[1]
  Ki: 1.8 nM
[2]
  Ki: 19 nM

## C[C@@H]1CCCN1CCCOc1ccc(-c2ccn(C)c(=O)c2)cc1
[1]
  Ki: 3.2 nM
[2]
  Ki: 12 nM

## C[C@@H]1CCCN1CCCOc1ccc(-c2cccn(C)c2=O)cc1
[1]
  Ki: 18 nM
[2]
  Ki: 144 nM

## C[C@@H]1CCCN1CCCOc1ccc(-c2cccc(=O)n2C)cc1
[1]
  Ki: 4.9 nM
[2]
  Ki: 21 nM

## C[C@@H]1CCCN1CCCOc1ccc(-c2cc(-c3ccccc3)c(=O)n(C)c2)cc1
[1]
  Ki: 3.5 nM
[2]
  Ki: 7.9 nM
